This experiment concerns the target T1, rat mGlu2 (Rattus norvegicus, UniProt P31421).
T1 construct: expressed in transfected cells; host or cells: HEK-293
In words: mGlu GIRK cell-based thallium flux assay, rat mGlu2. To be noted: rat mGlu2 GIRK IC50 (nM), HEK-293 cells co-expressing rat mGlu2 and GIRK; EC80 glutamate; Tl flux. As for the experimental part:
The day before the assay, GIRK cells co-expressing human mGlu3, human or rat mGlu2, as described above, were plated in black-walled, clear-bottomed, amine-coated 384-well plates at a density of 15,000 cells/20 μL/well in the assay medium (glutamine-depleted basal DMEM supplemented with 10% dialyzed FBS, 20 mM HEPES, 1 mM sodium pyruvate). Cells were incubated at 37° C. in the presence of 5% CO2. […] Cells were washed with assay buffer using a microplate washer to remove the medium, resulting in 20 μL of buffer remaining in each well. Immediately, 20 μL of 2× Thallos dye solution was added to cells, and incubated for one hour at 25° C. During the cell dye loading incubation period, a 10-point concentration serial dilution of compound was created from a 10 mM DMSO compound stock by performing a 1:3 serial dilution in DMSO using the Bravo liquid handler. The 2× compound plate was generated by transferring 0.24 μL of the diluted compound in each well to a daughter plate using an Echo acoustic liquid handler.
After dye-loading, cell plates were washed with assay buffer to remove excess extracellular dye using a microplate washer, resulting in 20 μL of buffer remaining in each well. After a ten-minute equilibration period, cell, compound and agonist plates were loaded into a Hamamatsu μCell kinetic imaging plate reader equipped with liquid handler to monitor fluorescence changes at 480 nm excitation and 540 nm emission settings. Briefly, after collection of baseline fluorescence, 20 μL of compound was added and incubated for two minutes and twenty seconds. This is immediately followed by adding 10 μL of glutamate-thallium buffer to the wells containing compound. The fluorescent signal was monitored an additional 2.5 minutes after the glutamate addition. Multiple reference wells containing no compound received either no glutamate (for a baseline reference), […] glutamate, or ECmax glutamate (for normalization to maximum response). Fluorescence was measured throughout the experiment at a frequency of 1 measurement per every 2 seconds before the glutamate addition and a frequency of 1 measurement per every 1 second after the glutamate addition. Each compound concentration series occurred one time in each plate, and replicates from two or three plates were used in each experimental run. Thallium solutions were handled and disposed of according to guidelines from the Vanderbilt University Chemical Safety department.
Data were normalized using a static ratio function (F/F0) by dividing every fluorescent measurement by the initial fluorescent value for the corresponding well. The increase in signal resulting from the glutamate/thallium addition of the second add was measured by determining the slope from 3 seconds to 13 seconds after the addition. The average of all baseline slopes (no compound, no glutamate) was determined and this value was subtracted from all other slope values. The average of all ECmax slopes was determined and this value was used to normalize the baseline-corrected slopes to a percent max value (% Emax). The % Emax values for each compound series were plotted versus the log of the concentration and fit to a 4-parameter logistical equation with no fixed parameters.
Potency is reported as the IC50 resulting from the curve fit.

“And” between values parts separate entries of the source, which are not always exact repeats. Equal values may be shown once.

T1 sequence (P31421 19-872): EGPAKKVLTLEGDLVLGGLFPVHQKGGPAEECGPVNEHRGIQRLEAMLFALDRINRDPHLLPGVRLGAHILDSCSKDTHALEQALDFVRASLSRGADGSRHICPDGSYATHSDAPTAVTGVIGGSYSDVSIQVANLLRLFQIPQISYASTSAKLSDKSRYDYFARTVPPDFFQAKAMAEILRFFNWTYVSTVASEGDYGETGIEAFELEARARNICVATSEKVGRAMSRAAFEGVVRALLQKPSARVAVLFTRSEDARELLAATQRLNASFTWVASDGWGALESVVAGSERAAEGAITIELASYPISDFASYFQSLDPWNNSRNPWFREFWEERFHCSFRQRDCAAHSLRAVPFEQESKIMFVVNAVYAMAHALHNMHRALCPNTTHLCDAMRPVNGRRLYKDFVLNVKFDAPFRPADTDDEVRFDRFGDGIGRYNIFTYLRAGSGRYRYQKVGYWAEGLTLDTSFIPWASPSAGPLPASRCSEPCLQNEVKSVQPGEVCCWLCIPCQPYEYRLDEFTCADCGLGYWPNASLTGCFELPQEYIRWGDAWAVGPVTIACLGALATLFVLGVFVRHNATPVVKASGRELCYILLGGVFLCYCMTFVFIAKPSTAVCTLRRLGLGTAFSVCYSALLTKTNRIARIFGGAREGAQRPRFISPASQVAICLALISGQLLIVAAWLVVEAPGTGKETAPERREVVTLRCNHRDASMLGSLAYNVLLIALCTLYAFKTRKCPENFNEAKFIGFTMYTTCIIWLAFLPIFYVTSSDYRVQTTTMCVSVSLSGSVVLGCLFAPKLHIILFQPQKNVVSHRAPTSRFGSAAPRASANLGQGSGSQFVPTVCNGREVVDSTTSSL

The term IC50 denotes the concentration needed to halve the response being measured. Low values mean higher potency, high ones lower potency. The compound `CC(Oc1cc2c(cc1-c1ccc(F)cc1)C(=O)NC2)c1ccncc1` (stereo not shown) [Compound 27, 6-(4-fluorophenyl)-5-(1-(pyridin-4-yl)ethoxy)isoindolin-1-one] came in with a 50% inhibitory concentration (IC50) of 321 nM. That is a sub-micromolar value. With `O=C1NCc2cc(OC3CN(S(=O)(=O)c4ccc5cnccc5c4)C3)c(-c3ccc(F)cc3)cc21` [Compound 75, 6-(4-fluorophenyl)-5-((1-(isoquinolin-6-ylsulfonyl)azetidin-3-yl)oxy)isoindolin-1-one] the figure was over 10000 nM; with `CC(Oc1cc2c(cc1-c1ccc(OC(F)F)cc1F)C(=O)NC2)c1ccncc1` (stereo not shown) [Compound 37, 6-(4-(difluoromethoxy)-2-fluorophenyl)-5-(1-(pyridin-4-yl)ethoxy)isoindolin-1-one], 781 nM; with `O=C1NCc2cc(Oc3ccncc3)c(-c3ccc(F)cc3)cc21` [Compound 31, 6-(4-fluorophenyl)-5-(pyridin-4-yloxy)isoindolin-1-one], 1160 nM. Compound `Cn1ccc(COc2cc3c(cc2-c2ccc(OC(F)(F)F)cc2)C(=O)NC3)n1` [Compound 43, 5-((1-methyl-1H-pyrazol-3-yl)methoxy)-6-(4-(trifluoromethoxy)phenyl)isoindolin-1-one] gave an IC50 of 2370 nM. `Cn1cc(-c2cc3c(cc2OCc2ccn(C)n2)CNC3=O)cn1` [Compound 46, 5-((1-methyl-1H-pyrazol-3-yl)methoxy)-6-(1-methyl-1H-pyrazol-4-yl)isoindolin-1-one] returned an IC50 of over 10000 nM. With `CC(Oc1cc2c(cc1-c1ccc(OC(F)(F)F)cc1)C(=O)NC2)c1ccncc1` (stereo not shown) [Compound 39, 5-(1-(pyridin-4-yl)ethoxy)-6-(4-(trifluoromethoxy)phenyl)isoindolin-1-one] the figure was over 10000 nM; with `Cc1cc(S(=O)(=O)N2CC(Oc3cc4c(cc3-c3ccc(F)cc3)C(=O)NC4)C2)nn1C` [Compound 77, 5-((1-((1,5-dimethyl-1H-pyrazol-3-yl)sulfonyl)azetidin-3-yl)oxy)-6-(4-fluorophenyl)isoindolin-1-one], 2670 nM. With `N#Cc1cccc(C(=O)N2CC(Oc3cc4c(cc3-c3ccc(F)cc3)C(=O)NC4)C2)c1` [Compound 70, 3-(3-((6-(4-fluorophenyl)-1-oxoisoindolin-5-yl)oxy)azetidine-1-carbonyl)benzonitrile] the figure was 4780 nM and > 30000 nM.

On to `[2H]C1([2H])NC(=O)c2cc(-c3ccc(F)cc3)c(OC([2H])([2H])c3cnn(C)c3)cc21` [Compound 34, 6-(4-fluorophenyl)-5-((1-methyl-1H-pyrazol-4-yl)methoxy-d2)isoindolin-1-one-3,3-d2], for which the IC50 came out at 836 nM. With `O=C1NCc2cc(OC3CN(C(=O)c4cccc(C(F)(F)F)c4)C3)c(-c3ccc(F)cc3)cc21` [Compound 66, 6-(4-fluorophenyl)-5-((1-(3-(trifluoromethyl)benzoyl)azetidin-3-yl)oxy)isoindolin-1-one] the figure was 7540 nM and > 30000 nM; with `CC(Oc1cc2c(cc1-c1ccc(F)cc1F)C(=O)NC2)c1ccncc1` (stereo not shown) [Compound 28, 6-(2,4-difluorophenyl)-5-(1-(pyridin-4-yl)ethoxy)isoindolin-1-one], 305 nM; with `Cn1cc(CN2CC(Oc3cc4c(cc3-c3ccc(F)cc3)C(=O)NC4)C2)cn1` [Compound 78, 6-(4-fluorophenyl)-5-((1-((1-methyl-1H-pyrazol-4-yl)methyl)azetidin-3-yl)oxy)isoindolin-1-one], over 10000 nM. With `[2H]C([2H])(Oc1cc2c(cc1-c1cc(F)cc(C#N)c1)C(=O)NC2)c1ccc(C)nc1` [Compound 59, 3-fluoro-5-(6-((6-methylpyridin-3-yl)methoxy-d2)-3-oxoisoindolin-5-yl)benzonitrile] the figure was over 10000 nM. `Cn1ccc(COc2cc3c(cc2-c2cnn(C(F)F)c2)C(=O)NC3)n1` [Compound 50, 6-(1-(difluoromethyl)-1H-pyrazol-4-yl)-5-((1-methyl-1H-pyrazol-3-yl)methoxy)isoindolin-1-one] gave an IC50 of 2360 nM. With `Cn1ccc(COc2cc3c(cc2-c2ccc(OC(F)F)cc2F)C(=O)NC3)n1` [Compound 42, 6-(4-(difluoromethoxy)-2-fluorophenyl)-5-((1-methyl-1H-pyrazol-3-yl)methoxy)isoindolin-1-one] the figure was 393 nM.

In the case of `CC(Oc1cc2c(cc1-c1ccc(-c3cccs3)cc1)C(=O)NC2)c1ccncc1` (stereo not shown) [Compound 36, 5-(1-(pyridin-4-yl)ethoxy)-6-(4-(thiophen-2-yl)phenyl)isoindolin-1-one], the IC50 was over 30000 nM.

On to `Cn1ccc(COc2cc3c(cc2-c2ccc4c(c2)CCO4)C(=O)NC3)n1` [Compound 51, 6-(2,3-dihydrobenzofuran-5-yl)-5-((1-methyl-1H-pyrazol-3-yl)methoxy)isoindolin-1-one], for which the IC50 turned out to be 965 nM. This counts as sub-micromolar. Consider `Cn1ccc(COc2cc3c(cc2-c2ccc4ncsc4c2)C(=O)NC3)n1` [Compound 52, 6-(benzo[d]thiazol-6-yl)-5-((1-methyl-1H-pyrazol-3-yl)methoxy)isoindolin-1-one], for which the IC50 stood at 675 nM.

Regarding `Cn1ccc(COc2cc3c(cc2-c2ccc4c(c2)OCCO4)C(=O)NC3)n1` [Compound 56, 6-(2,3-dihydrobenzo[b][1,4]dioxin-6-yl)-5-((1-methyl-1H-pyrazol-3-yl)methoxy)isoindolin-1-one], the IC50 was 2930 nM and 7540 nM. In the case of `Cn1ccc(OCc2cc3c(cc2-c2ccc(F)cc2)C(=O)NC3)n1` [Compound 64, 6-(4-fluorophenyl)-5-(((1-methyl-1H-pyrazol-3-yl)oxy)methyl)isoindolin-1-one] it was 2930 nM and 582 nM; in that of `Cc1cc(CN2CC(Oc3cc4c(cc3-c3ccc(F)cc3)C(=O)NC4)C2)no1` [Compound 80, 6-(4-fluorophenyl)-5-((1-((5-methylisoxazol-3-yl)methyl)azetidin-3-yl)oxy)isoindolin-1-one], 1990 nM. `Cc1csc(C)c1S(=O)(=O)N1CC(Oc2cc3c(cc2-c2ccc(F)cc2)C(=O)NC3)C1` [Compound 76, 5-((1-((2,4-dimethylthiophen-3-yl)sulfonyl)azetidin-3-yl)oxy)-6-(4-fluorophenyl)isoindolin-1-one] showed an IC50 of 1000 nM. With `CC(Oc1cc2c(cc1-c1ccc(N3CCOCC3)cc1)C(=O)NC2)c1ccncc1` (stereo not shown) [Compound 38, 6-(4-morpholinophenyl)-5-(1-(pyridin-4-yl)ethoxy)isoindolin-1-one] the figure was over 10000 nM; with `Cn1ccc(-c2cc3c(cc2OCc2ccn(C)n2)CNC3=O)c1` [Compound 47, 5-((1-methyl-1H-pyrazol-3-yl)methoxy)-6-(1-methyl-1H-pyrrol-3-yl)isoindolin-1-one], over 10000 nM; with `O=C1NCc2cc(OC3CN(C(=O)c4ccno4)C3)c(-c3ccc(F)cc3)cc21` [Compound 69, 6-(4-fluorophenyl)-5-((1-(isoxazole-5-carbonyl)azetidin-3-yl)oxy)isoindolin-1-one], over 10000 nM. Compound `O=C1NCc2cc(OC3CN(Cc4ccc(C(F)(F)F)o4)C3)c(-c3ccc(F)cc3)cc21` [Compound 81, 6-(4-fluorophenyl)-5-((1-((5-(trifluoromethyl)furan-2-yl)methyl)azetidin-3-yl)oxy)isoindolin-1-one] displayed a half-maximal inhibitory concentration (IC50) of 1670 nM. This lies in the single-digit micromolar range. With `Cc1c(-c2cc3c(cc2OCc2ccn(C)n2)CNC3=O)cc(C#N)n1C` [Compound 49, 1,5-dimethyl-4-(6-((1-methyl-1H-pyrazol-3-yl)methoxy)-3-oxoisoindolin-5-yl)-1H-pyrrole-2-carbonitrile] the figure was over 10000 nM.

In turn, `Cc1nc(CN2CC(Oc3cc4c(cc3-c3ccc(F)cc3)C(=O)NC4)C2)cs1` [Compound 79, 6-(4-fluorophenyl)-5-((1-((2-methylthiazol-4-yl)methyl)azetidin-3-yl)oxy)isoindolin-1-one] registered an IC50 of 2540 nM. `Cc1csc(C(C)Oc2cc3c(cc2-c2ccc(F)cc2)C(=O)NC3)n1` (stereo not shown) [Compound 29, 6-(4-fluorophenyl)-5-(1-(4-methylthiazol-2-yl)ethoxy)isoindolin-1-one] came in with a concentration for half-maximal inhibition (IC50) of 1690 nM. With `O=C1NCc2cc(OC3CN(C(=O)c4cccs4)C3)c(-c3ccc(F)cc3)cc21` [Compound 67, 6-(4-fluorophenyl)-5-((1-(thiophene-2-carbonyl)azetidin-3-yl)oxy)isoindolin-1-one] the figure was over 10000 nM.

Source of the values: US20240199640A1, “NEGATIVE ALLOSTERIC MODULATORS OF METABOTROPIC GLUTAMATE RECEPTOR 2” (priority 2021, published 2024).
